Key:
[1] = molecular target: T1, Amine oxidase [copper-containing] 3 (Homo sapiens, UniProt Q16853); experiment: Inhibition of human VAP1
T1 sequence (Q16853 whole entry): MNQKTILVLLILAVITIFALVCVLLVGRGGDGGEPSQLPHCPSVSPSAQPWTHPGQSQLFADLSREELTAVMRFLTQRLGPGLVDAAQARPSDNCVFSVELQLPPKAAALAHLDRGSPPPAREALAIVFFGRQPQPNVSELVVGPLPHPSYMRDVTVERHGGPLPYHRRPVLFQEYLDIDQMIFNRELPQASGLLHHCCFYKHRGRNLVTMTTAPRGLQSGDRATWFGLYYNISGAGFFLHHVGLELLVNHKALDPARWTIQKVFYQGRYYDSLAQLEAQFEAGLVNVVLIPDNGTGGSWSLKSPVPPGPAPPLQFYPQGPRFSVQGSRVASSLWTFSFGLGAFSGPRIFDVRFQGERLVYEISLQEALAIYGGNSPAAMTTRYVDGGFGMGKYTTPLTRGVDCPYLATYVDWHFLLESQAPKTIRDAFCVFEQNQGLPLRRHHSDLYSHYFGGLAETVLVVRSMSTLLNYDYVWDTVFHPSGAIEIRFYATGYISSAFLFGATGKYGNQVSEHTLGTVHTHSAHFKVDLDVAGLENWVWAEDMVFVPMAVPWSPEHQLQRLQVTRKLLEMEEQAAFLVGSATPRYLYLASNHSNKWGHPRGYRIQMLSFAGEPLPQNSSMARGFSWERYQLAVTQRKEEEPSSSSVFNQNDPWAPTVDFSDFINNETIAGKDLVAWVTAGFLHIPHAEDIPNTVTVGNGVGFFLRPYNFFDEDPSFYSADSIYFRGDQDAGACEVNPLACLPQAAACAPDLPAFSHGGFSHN

[2] = Cytotoxicity against human U87MG cells assessed as inhibition of cell growth after 72 hrs by MTT assay; type: functional, cell-based, U-87MG ATCC; details: U-87 MG
A549 = experiment: cells; details: Homo sapiens, A549, 72 h
cells [3] = details: Homo sapiens, NCI-H460, 72 h
HT-29 [4] = experiment: cells; details: Homo sapiens, HT-29, 72 h
cells [5] = details: Homo sapiens, MKN-45, 72 h
[6] = molecular target: Platelet-derived growth factor receptor beta (Homo sapiens, UniProt P09619); experiment: Inhibition of PDGFR beta (unknown origin)
[7] = molecular target: Vascular endothelial growth factor receptor 2 (Homo sapiens, UniProt P35968); experiment: Inhibition of KDR (unknown origin)
HT-29 [8] = experiment: Ratio of foretinib IC50 to compound IC50 for human HT-29 cells; type: functional
[9] = molecular target: Hepatocyte growth factor receptor (Homo sapiens, UniProt P08581); experiment: Inhibition of c-Met (unknown origin) using poly (Glu,Tyr)4:1 as substrate by homogeneous time-resolved fluorescence assay
[10] = Ratio of foretinib IC50 to compound IC50 for human H460 cells; type: functional
[11] = molecular target: T2, Receptor-type tyrosine-protein kinase FLT3 (Homo sapiens, UniProt P36888); experiment: Inhibition of Flt3 (unknown origin)
T2 sequence (P36888 whole entry): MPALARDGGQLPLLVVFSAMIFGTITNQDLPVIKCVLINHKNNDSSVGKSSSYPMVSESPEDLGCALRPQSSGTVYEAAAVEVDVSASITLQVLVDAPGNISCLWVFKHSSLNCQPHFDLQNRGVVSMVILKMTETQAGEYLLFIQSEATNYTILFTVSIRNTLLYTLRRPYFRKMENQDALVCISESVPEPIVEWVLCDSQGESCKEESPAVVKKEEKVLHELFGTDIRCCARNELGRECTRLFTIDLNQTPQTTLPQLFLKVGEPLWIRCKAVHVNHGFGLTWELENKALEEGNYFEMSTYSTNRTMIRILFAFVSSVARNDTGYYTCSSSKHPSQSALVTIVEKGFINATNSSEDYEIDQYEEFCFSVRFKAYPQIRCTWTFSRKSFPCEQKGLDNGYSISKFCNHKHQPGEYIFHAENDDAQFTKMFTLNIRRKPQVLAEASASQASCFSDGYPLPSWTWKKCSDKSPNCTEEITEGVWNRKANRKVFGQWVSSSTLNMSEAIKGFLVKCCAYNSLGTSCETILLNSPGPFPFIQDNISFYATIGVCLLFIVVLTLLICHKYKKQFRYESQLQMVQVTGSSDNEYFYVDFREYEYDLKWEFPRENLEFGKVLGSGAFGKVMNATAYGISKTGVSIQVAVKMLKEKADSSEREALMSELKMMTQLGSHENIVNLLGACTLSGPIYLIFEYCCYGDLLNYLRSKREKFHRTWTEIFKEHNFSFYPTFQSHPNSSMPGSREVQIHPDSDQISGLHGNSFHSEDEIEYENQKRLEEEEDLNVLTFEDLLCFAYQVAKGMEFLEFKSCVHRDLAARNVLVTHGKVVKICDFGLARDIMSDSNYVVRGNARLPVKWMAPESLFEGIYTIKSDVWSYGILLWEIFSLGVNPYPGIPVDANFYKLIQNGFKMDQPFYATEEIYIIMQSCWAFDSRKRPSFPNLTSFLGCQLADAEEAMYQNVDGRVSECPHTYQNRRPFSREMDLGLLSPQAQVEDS

[12] = molecular target: Epidermal growth factor receptor (Homo sapiens, UniProt P00533); experiment: Inhibition of EGFR (unknown origin)
[13] = molecular target: Mast/stem cell growth factor receptor Kit (Homo sapiens, UniProt P10721); experiment: Inhibition of c-Kit (unknown origin)

Row | SMILES | IC50 (A549) [nM] | IC50 (cells [3]) [nM] | IC50 (HT-29 [4]) [nM] | IC50 (cells [5]) [nM] | IC50 [6] [nM] | IC50 [7] [nM] | IC50 [9] [nM] | IC50 [11] [nM] | IC50 [12] [nM] | IC50 [13] [nM] | IC50 [1] [nM] | IC50 [2] [nM] | Ratio IC50 (HT-29 [8]) | Ratio IC50 [10]
1 | O=c1ccc(=O)[nH][nH]1 |  |  |  |  |  |  |  |  |  |  | 20 |  |  | 
2 | COc1ccc(-n2nc(C(=O)Nc3ccc(Oc4ccnc5cc(OCCCN6CCC(C)CC6)c(OC)cc45)c(F)c3)c(C)cc2=O)cc1 | 1100 | 4650 | 5450 | 400 |  |  |  |  |  |  |  | 2840 |  | 
3 | COc1cc2c(Oc3ccc(NC(=O)c4nn(-c5ccccc5C)c(=O)cc4C)cc3F)ccnc2cc1OCCCN1CCN(C)CC1 | 2830 | 3420 | 3790 | 1630 |  |  |  |  |  |  |  | 3720 |  | 
4 | COc1cc2c(Oc3ccc(NC(=O)c4nn(-c5ccccc5C)c(=O)cc4C)cc3F)ccnc2cc1OCCCN1CCCC1 | 1300 | 1590 | 1400 | 760 |  |  |  |  |  |  |  | 2960 |  | 
5 | COc1ccc(-n2nc(C(=O)Nc3ccc(Oc4ccnc5cc(OCCCN6CCCC6)c(OC)cc45)c(F)c3)c(C)cc2=O)cc1 | 2770 | 3610 | 3300 | 1290 |  |  |  |  |  |  |  | 2960 |  | 

Continued, in another order:

Row | IC50 (A549) [nM] | IC50 (cells [3]) [nM] | IC50 (HT-29 [4]) [nM] | IC50 (cells [5]) [nM] | IC50 [6] [nM] | IC50 [7] [nM] | IC50 [9] [nM] | IC50 [11] [nM] | IC50 [12] [nM] | IC50 [13] [nM] | SMILES | IC50 [1] [nM] | IC50 [2] [nM] | Ratio IC50 (HT-29 [8]) | Ratio IC50 [10]
6 | 370 | 460 | 220 | 120 |  |  |  |  |  |  | COc1cc2c(Oc3ccc(NC(=O)c4nn(-c5ccccc5)c(=O)cc4C)cc3F)ccnc2cc1OCCCN1CCCC1 |  | 1100 |  | 
7 | 130 | 210 | 140 | 100 |  |  |  |  |  |  | COc1cc2c(Oc3ccc(NC(=O)c4nn(-c5ccccc5C(F)(F)F)c(=O)cc4C)cc3F)ccnc2cc1OCCCN1CCCC1 |  | 1010 |  | 
8 | 90 | 290 | 250 | 70 |  |  |  |  |  |  | COc1cc2c(Oc3ccc(NC(=O)c4nn(-c5ccccc5OC(F)(F)F)c(=O)cc4C)cc3F)ccnc2cc1OCCCN1CCC(C)CC1 |  | 800 |  | 
9 | 50 | 130 | 100 | 30 | 92.3 | 425 | 2.15 | 9.28 | > 10000 | 4.32 | COc1cc2c(Oc3ccc(NC(=O)c4nn(-c5ccccc5C(F)(F)F)c(=O)cc4C)cc3F)ccnc2cc1OCCCN1CCOCC1 |  | 1060 | 1.9 | 1.5
